Key:
HDAC6 [1] = target: T1, HDAC6 (Homo sapiens, UniProt Q9UBN7); assay: In vitro cell-based assay: acetylation levels of Alpha-Tubulin by Western Blot in MOLP8 cells; set-up: endogenous in cells; host or cells: MOLP8; conditions: 18 h, acetyl-alpha-tubulin relative band intensity, ACY-1215 1 μM = 100%
T1 sequence (Q9UBN7 1-1215): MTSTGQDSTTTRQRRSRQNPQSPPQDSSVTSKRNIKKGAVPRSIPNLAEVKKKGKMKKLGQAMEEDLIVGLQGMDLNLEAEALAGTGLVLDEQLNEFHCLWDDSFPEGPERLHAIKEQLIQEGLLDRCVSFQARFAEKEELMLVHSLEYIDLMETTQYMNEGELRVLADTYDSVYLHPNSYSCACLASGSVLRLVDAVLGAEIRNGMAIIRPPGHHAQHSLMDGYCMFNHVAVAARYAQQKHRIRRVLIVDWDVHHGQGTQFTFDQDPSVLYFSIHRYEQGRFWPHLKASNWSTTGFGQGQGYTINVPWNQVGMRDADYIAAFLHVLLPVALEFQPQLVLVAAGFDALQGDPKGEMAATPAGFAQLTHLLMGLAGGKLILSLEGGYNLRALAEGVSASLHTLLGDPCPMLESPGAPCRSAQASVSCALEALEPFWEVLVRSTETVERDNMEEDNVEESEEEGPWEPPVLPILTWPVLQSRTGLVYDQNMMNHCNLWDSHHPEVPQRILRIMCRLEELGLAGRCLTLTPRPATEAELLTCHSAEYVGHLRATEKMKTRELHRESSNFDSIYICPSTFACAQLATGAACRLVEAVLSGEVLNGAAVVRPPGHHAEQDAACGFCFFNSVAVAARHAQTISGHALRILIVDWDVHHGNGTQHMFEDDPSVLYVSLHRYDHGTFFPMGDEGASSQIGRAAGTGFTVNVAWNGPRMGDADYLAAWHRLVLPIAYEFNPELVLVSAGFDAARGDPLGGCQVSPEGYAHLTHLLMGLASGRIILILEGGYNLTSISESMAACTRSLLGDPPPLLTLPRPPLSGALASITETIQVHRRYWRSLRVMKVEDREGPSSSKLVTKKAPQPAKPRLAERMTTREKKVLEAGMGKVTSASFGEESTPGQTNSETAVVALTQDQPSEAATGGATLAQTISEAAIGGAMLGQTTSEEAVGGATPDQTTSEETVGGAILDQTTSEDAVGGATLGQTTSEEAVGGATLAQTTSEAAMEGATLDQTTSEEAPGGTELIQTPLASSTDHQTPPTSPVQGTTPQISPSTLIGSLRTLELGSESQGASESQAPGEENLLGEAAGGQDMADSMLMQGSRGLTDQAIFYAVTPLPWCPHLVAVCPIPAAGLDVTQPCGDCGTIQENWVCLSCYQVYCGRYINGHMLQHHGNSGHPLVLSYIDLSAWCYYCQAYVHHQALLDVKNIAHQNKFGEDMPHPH
In short: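 MOLP8 cells treated with compounds at 5 and 1 μM for 18 h at 37° C.; acetyl-alpha-tubulin measured by Western blot of RIPA extracts (7 μg protein). Bands normalized to total protein or beta-actin, expressed relative to ACY-1215 1 μM (100%), then classed.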

HDAC2 = target: T2, HDAC2 (Homo sapiens, UniProt Q92769); assay: HDAC2 enzyme inhibition assay (fluorimetric); assay type: biochemical; conditions: 1 μM compound; 3 h pre-incubation; recombinant full length HDAC2; read-out: HDAC2 % inh @ 1 μM
T2 construct: (full length with C-terminal His-tag); His (C); purchased BPS Bioscience Inc. 50002
Description: (§1) HDAC6 and HDAC2 Enzyme Inhibition Assay
(§2) A fluorimetric assay was used for testing the activity of compounds of the invention against HDAC6 and HDAC2.
(§3) The compounds were dissolved in DMSO. Serial dilutions were prepared in DMSO and then diluted 1:10 in HDAC assay buffer (Tris-buffered solution, BPS Bioscience Inc. #50031). 5 μl of the compound dilution was added to a 50 μl reaction so that the final concentration of DMSO was 1%.
(§4) The compounds were pre-incubated in duplicate at RT for 3 hours in a mixture containing HDAC assay buffer, 5 μg BSA and recombinant HDAC enzyme (see table above). The enzymatic reactions were initiated by the addition of a fluorogenic, acetylated peptide substrate based on a histone protein (BPS Bioscience Inc. #50037) to a final concentration of 10 μM. The enzymatic reaction proceeded for 30 minutes at 37° C. Then, 50 μl of 2× HDAC Developer, which contains peptidase activity and Trichostatin A (BPS Bioscience Inc. #50030) was added and the plate was incubated at RT for an additional 15 minutes. Fluorescence intensity was measured at an excitation of 360 nm and an emission of 460 nm using a Tecan Infinite M1000 microplate reader.
(§5) Trichostatin A (TSA, Selleckchem #S1045) was used as reference inhibitor.
(§6) The fluorescent intensity data were analyzed using the computer software Graphpad Prism (GraphPad Software, San Diego, CA). 100% activity was defined as the fluorescent intensity (Ft) in the absence of the compound. 0% activity was defined as the fluorescent intensity (Fb) in the absence of the enzyme. The percent activity in the presence of each compound was calculated according to the following equation: % activity=(F−Fb)/(Ft−Fb), where F=the fluorescent intensity in the presence of the compound.

HDAC6 [2] = target: T1, HDAC6; assay: HDAC6 enzyme inhibition assay (fluorimetric); assay type: biochemical; conditions: 1 μM compound; 3 h pre-incubation; recombinant full length HDAC6; read-out: HDAC6 % inh @ 1 μM
Description: as §1, §2, §3, §4, §5, §6

T2 sequence (Q92769 whole entry): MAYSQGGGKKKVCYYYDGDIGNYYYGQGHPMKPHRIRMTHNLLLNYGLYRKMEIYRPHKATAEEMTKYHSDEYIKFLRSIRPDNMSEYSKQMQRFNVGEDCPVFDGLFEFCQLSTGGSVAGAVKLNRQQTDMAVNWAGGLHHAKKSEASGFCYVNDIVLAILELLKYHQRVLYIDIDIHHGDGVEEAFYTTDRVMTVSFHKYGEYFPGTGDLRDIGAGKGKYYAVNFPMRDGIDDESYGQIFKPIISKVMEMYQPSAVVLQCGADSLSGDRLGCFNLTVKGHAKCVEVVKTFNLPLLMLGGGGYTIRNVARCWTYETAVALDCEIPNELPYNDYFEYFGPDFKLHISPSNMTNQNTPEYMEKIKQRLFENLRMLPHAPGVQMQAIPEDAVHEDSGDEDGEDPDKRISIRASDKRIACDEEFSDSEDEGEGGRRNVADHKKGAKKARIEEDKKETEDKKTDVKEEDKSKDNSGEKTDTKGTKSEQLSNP

Q: What does the source list for `CCCCn1c(C(=O)N(CC)CC)cc2cc(-c3cc(-c4noc(C(F)(F)F)n4)ccn3)ncc21` [Example 1w, 1-Butyl-N,N-diethyl-5-(4-(5-(trifluoromethyl)-1,2,4-oxadiazol-3-yl)pyridin-2-yl)-1H-pyrrolo[2,3-c]pyridine-2-carboxamide]?
A: Cellular activity @1 uM (HDAC6 [1]): + (50-150); Cellular activity @5 uM (HDAC6 [1]): ++ (150-300); inhibition at 1 µM (HDAC2): 6%; inhibition at 1 µM (HDAC6 [2]): 86%

Q: How did the “Cellular activity @1 uM” value (HDAC6 [1]) turn out when `COCCn1ccc2cc(-c3cc(-c4noc(C(F)(F)F)n4)ccn3)ncc21` [Example 1x, 3-(2-(1-(2-Methoxyethyl)-1H-pyrrolo[2,3-c]pyridin-5-yl)pyridin-4-yl)-5-(trifluoromethyl)-1,2,4-oxadiazole] was run?
A: The value was “++ (150-300)”.

Q: And the “Cellular activity @5 uM” value (HDAC6 [1])?
A: Its value is “+++ (>300)”.

Q: What about the inhibition at 1 µM (HDAC2) of the same compound?
A: Its inhibition at 1 µM is 16%.

Q: What about the inhibition at 1 µM (HDAC6 [2]) of the same compound?
A: The inhibition at 1 µM was 95%.

Q: For `O=C(CN1CCC(F)(F)CC1)Nc1ccnc(-c2cc(-c3noc(C(F)(F)F)n3)ccn2)c1` [Example 1y, 2-(4,4-Difluoropiperidin-1-yl)-N-(4′-(5-(trifluoromethyl)-1,2,4-oxadiazol-3-yl)-[2,2′-bipyridin]-4-yl)acetamide], which “Cellular activity @1 uM” value (HDAC6 [1]) is on record?
A: The value was “+ (50-150)”.

Q: What about the “Cellular activity @5 uM” value (HDAC6 [1]) of the same compound?
A: The value was “++ (150-300)”.

Q: What about the inhibition at 1 µM (HDAC2) of the same compound?
A: The inhibition at 1 µM was 27%.

Q: What about the inhibition at 1 µM (HDAC6 [2]) of the same compound?
A: Its inhibition at 1 µM is 92%.

Q: What does the source list for `FC1(F)CCN(CCNc2ccnc(-c3cc(-c4noc(C(F)(F)F)n4)ccn3)c2)CC1` [Example 1z, N-(2-(4,4-Difluoropiperidin-1-yl)ethyl)-4′-(5-(trifluoromethyl)-1,2,4-oxadiazol-3-yl)-[2,2′-bipyridin]-4-amine]?
A: Cellular activity @1 uM (HDAC6 [1]): + (50-150); Cellular activity @5 uM (HDAC6 [1]): ++ (150-300); inhibition at 1 µM (HDAC2): 46%; inhibition at 1 µM (HDAC6 [2]): 97%

Q: For `CCCCn1cc(CN(C)C)c2cc(-c3cc(-c4noc(C(F)(F)F)n4)ccn3)ncc21` [Example 3, 1-(1-Butyl-5-(4-(5-(trifluoromethyl)-1,2,4-oxadiazol-3-yl)pyridin-2-yl)-1-pyrrolo[2,3-c]pyridin-3-yl)-N,N-dimethylmethanamine], which “Cellular activity @1 uM” value (HDAC6 [1]) is on record?
A: Its value is “+ (50-150)”.

Q: And the “Cellular activity @5 uM” value (HDAC6 [1])?
A: Its value is “+++ (>300)”.

Q: What about the inhibition at 1 µM (HDAC2) of the same compound?
A: Its inhibition at 1 µM is 30%.

Q: What about the inhibition at 1 µM (HDAC6 [2]) of the same compound?
A: The inhibition at 1 µM was 90%.

Q: `FC(F)(F)c1nc(-c2ccnc(-c3n[nH]c4cccnc34)c2)no1` [Example 4, 3-(2-(1H-Pyrazolo[4,3-b]pyridin-3-yl)pyridin-4-yl)-5-(trifluoromethyl)-1,2,4-oxadiazole] was tested. Which “Cellular activity @1 uM” value (HDAC6 [1]) did it give?
A: The value was “++ (150-300)”.

Q: What about the “Cellular activity @5 uM” value (HDAC6 [1]) of the same compound?
A: Its value is “+++ (>300)”.

Q: And the inhibition at 1 µM (HDAC2)?
A: The inhibition at 1 µM was 25%.

Q: What about the inhibition at 1 µM (HDAC6 [2]) of the same compound?
A: Its inhibition at 1 µM is 96%.

Q: Which results are given for `O=C(Nc1ccnc(-c2cc(-c3noc(C(F)(F)F)n3)ccn2)c1)C1CCCNC1` (stereo not shown) [Example 5, N-(4′-(5-(trifluoromethyl)-1,2,4-oxadiazol-3-yl)-[2,2′-bipyridin]-4-yl)piperidine-3-carboxamide]?
A: Cellular activity @1 uM (HDAC6 [1]): ++ (150-300); Cellular activity @5 uM (HDAC6 [1]): ++ (150-300); inhibition at 1 µM (HDAC2): 29%; inhibition at 1 µM (HDAC6 [2]): 95%
